According to patent publication US10975119B2, “Selective cysteine protease inhibitors and uses thereof” (Genesis Technologies Limited, priority 2011, dated 2021):
Counter-ions that a name gives are not always drawn. Like-named read-outs stand apart in the source and are kept apart here.

Experiments:
Format in all cases: biochemical
Caspase-6 = biological target: T1, Caspase-6 (Homo sapiens, UniProt P55212); test: Caspase-6 inhibitor screening assay (BioVision kit, VEID-AFC); details: for inhibition at 10 µM: read-out: % Inhibition at 10 uM Casp6; for inhibition at 100 µM: read-out: % Inhibition at 100 uM Casp6; for IC50: read-out: IC50 Casp6
T1 construct: mixing the compounds with the respective active caspases; purchased BioVision K156-100
T1 sequence (P55212 24-179 limits assumed): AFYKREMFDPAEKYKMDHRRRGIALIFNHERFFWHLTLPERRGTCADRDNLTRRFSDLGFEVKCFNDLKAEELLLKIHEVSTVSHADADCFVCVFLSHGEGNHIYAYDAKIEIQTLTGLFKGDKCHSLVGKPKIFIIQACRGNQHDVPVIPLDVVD
T1 sequence (P55212 194-293 limits assumed): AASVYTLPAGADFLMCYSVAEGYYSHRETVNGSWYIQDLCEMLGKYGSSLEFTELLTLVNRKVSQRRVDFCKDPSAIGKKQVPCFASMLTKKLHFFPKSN
Method: (§1) The efficacy of an array of compounds as an inhibitor of the activity of Caspases 1 through 10 were assessed by using the respective Caspase Inhibitor Drug Screening Kits (Caspase-1 Catalog #: K151-100, Caspase-2 Catalog #: K152-100, Caspase-3 Catalog #: K153-100, Caspase-4 Catalog #: K154-100, Caspase-5 Catalog #: K155-100, Caspase-6 Catalog #: K156-100, Caspase-7 Catalog #: K157-100, Caspase-8 Catalog #: K158-100, Caspase-9 Catalog #: K159-100, Caspase-10 Catalog #: K160-100, BioVision) following the instructions of the manufacturer. […] Active caspases cleaved their respective synthetic substrates to release free AFC, which was then quantified by fluorometry.
(§2) Briefly, the compounds were first tested at 2 concentrations (10 uM and 100 uM final) to determine if there is a hit. […] Each condition was tested in duplicates. […] For some samples, a smaller range of concentrations was tested depending on the % Inhibition results at 10 uM and 100 uM. Results were summarized in Tables 2, 3, and 4 herein after. Table 2 represents the IC50 values (uM) of the test compounds as inhibitors of the activity of the various caspases.
(§3) (*) RFU (no inhibitor control)—RFU (compound at a specific concentration)
(§4) RFU (no inhibitor control)

Caspase-9 = biological target: T2, Caspase-9 (Homo sapiens, UniProt P55211); test: Caspase-9 inhibitor screening assay (BioVision kit, LEHD-AFC); details: for inhibition at 10 µM: read-out: % Inhibition at 10 uM Casp9; for inhibition at 100 µM: read-out: % Inhibition at 100 uM Casp9; for IC50: read-out: IC50 Casp9
T2 construct: purchased BioVision K159-100
T2 sequence (P55211 1-315 limits assumed): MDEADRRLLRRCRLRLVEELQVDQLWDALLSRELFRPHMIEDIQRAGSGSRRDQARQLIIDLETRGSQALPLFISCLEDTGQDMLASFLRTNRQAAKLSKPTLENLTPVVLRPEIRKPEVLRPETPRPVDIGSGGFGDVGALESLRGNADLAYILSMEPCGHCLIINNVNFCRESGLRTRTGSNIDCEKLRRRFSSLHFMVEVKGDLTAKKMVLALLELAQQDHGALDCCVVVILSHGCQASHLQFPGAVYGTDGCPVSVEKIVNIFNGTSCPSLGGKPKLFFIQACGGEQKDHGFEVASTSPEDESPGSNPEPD
T2 sequence (P55211 331-416 limits assumed): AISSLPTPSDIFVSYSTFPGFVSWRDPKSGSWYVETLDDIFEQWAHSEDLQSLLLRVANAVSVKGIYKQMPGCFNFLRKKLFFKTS
Method: as §1, §2, §3, §4

Caspase-7 = biological target: T3, Caspase-7 (Homo sapiens, UniProt P55210); test: Caspase-7 inhibitor screening assay (BioVision kit, DEVD-AFC); details: for inhibition at 10 µM: read-out: % Inhibition at 10 uM Casp7; for inhibition at 100 µM: read-out: % Inhibition at 100 uM Casp7; for IC50: read-out: IC50 Casp7
T3 construct: mixing the compounds with the respective active caspases; purchased BioVision K157-100
T3 sequence (P55210 24-198 limits assumed): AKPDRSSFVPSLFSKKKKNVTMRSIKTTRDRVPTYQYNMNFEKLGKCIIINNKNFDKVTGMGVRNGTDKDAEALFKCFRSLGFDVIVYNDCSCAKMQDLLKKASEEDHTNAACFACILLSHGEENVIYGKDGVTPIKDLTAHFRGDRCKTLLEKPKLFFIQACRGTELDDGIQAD
T3 sequence (P55210 207-303 limits assumed): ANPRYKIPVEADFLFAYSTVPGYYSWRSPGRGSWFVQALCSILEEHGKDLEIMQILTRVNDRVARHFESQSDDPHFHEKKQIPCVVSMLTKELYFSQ
Method: as §1, §2, §3, §4

Caspase-10 = biological target: T4, Caspase-10 (Homo sapiens, UniProt Q92851); test: Caspase-10 inhibitor screening assay (BioVision kit, AEVD-AFC); details: for inhibition at 10 µM: read-out: % Inhibition at 10 uM Casp10; for inhibition at 100 µM: read-out: % Inhibition at 100 uM Casp10; for IC50: read-out: IC50 Casp10
T4 construct: mixing the compounds with the respective active caspases; purchased BioVision K160-100
T4 sequence (Q92851 220-415 limits assumed): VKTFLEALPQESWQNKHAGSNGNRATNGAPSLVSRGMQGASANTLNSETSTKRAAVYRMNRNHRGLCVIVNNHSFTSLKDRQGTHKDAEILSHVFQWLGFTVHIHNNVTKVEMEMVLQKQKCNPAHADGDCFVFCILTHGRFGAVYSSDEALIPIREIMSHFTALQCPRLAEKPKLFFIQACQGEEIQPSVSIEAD
T4 sequence (Q92851 416-521 limits assumed): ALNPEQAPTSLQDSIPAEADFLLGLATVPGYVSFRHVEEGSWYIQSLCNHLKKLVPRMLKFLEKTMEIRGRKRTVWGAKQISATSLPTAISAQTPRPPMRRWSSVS
Method: as §1, §2, §3, §4

Caspase-4 = biological target: T5, Caspase-4 (Homo sapiens, UniProt P49662); test: Caspase-4 inhibitor screening assay (BioVision kit, LEVD-AFC); details: for inhibition at 10 µM: read-out: % Inhibition at 10 uM Casp4; for inhibition at 100 µM: read-out: % Inhibition at 100 uM Casp4
T5 construct: mixing the compounds with the respective active caspases; purchased BioVision K154-100
T5 sequence (P49662 81-270 limits assumed): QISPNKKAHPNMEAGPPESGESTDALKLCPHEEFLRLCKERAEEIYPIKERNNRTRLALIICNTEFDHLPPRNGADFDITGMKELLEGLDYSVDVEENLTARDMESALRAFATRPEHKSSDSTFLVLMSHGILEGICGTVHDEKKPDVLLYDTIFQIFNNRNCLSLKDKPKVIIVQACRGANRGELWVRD
T5 sequence (P49662 290-377 limits assumed): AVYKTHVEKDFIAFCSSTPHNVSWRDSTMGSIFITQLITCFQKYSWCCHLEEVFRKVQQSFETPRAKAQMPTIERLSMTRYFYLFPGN
Method: as §1, §2, §3, §4

Caspase-2 = biological target: T6, Caspase-2 (Homo sapiens, UniProt P42575); test: Caspase-2 inhibitor screening assay (BioVision kit, VDVAD-AFC); details: for inhibition at 10 µM: read-out: % Inhibition at 10 uM Casp2; for inhibition at 100 µM: read-out: % Inhibition at 100 uM Casp2; for IC50: read-out: IC50 Casp2
T6 construct: mixing the compounds with the respective active caspases; purchased BioVision K152-100
T6 sequence (P42575 170-325 limits assumed): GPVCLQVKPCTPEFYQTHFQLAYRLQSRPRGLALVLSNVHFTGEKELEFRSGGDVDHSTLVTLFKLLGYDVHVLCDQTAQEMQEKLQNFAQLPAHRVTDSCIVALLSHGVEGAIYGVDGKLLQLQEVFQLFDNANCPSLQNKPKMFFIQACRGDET
T6 sequence (P42575 334-452 limits assumed): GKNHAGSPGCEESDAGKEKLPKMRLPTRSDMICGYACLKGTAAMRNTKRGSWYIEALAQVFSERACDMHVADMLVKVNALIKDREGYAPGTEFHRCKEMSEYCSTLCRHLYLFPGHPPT
Method: as §1, §2, §3, §4

inhibition at 10 µM (Caspase-6) [%] | inhibition at 100 µM (Caspase-6) [%] | IC50 (Caspase-6) [µM] | inhibition at 10 µM (Caspase-9; 10 uM) [%] | inhibition at 100 µM (Caspase-9; 100 uM) [%] | IC50 (Caspase-9) [µM] | inhibition at 10 µM (Caspase-7; 10 uM) [%] | inhibition at 100 µM (Caspase-7; 100 uM) [%] | IC50 (Caspase-7) [µM] | inhibition at 10 µM (Caspase-10) [%] | inhibition at 100 µM (Caspase-10) [%] | IC50 (Caspase-10) [µM] | inhibition at 10 µM (Caspase-4) [%] | inhibition at 100 µM (Caspase-4) [%] | IC50 (Caspase-4; read-out: IC50 Casp4) [µM] | inhibition at 10 µM (Caspase-2) [%] | inhibition at 100 µM (Caspase-2) [%] | IC50 (Caspase-2) [µM] | SMILES | further results
0 | 0 | > 100 | 0 | 17 | > 100 | 0 | 9 | > 100 | 15 | 50 | > 100 | 0 | 2 | > 100 | 0 | 0 | > 100 | CC(C)[C@H](NC(=O)OCc1ccccc1)C(=O)N[C@H](/C=C/S(C)(=O)=O)CC(=O)O [Compound 3, Z-Val-Asp methyl vinyl sulfone] | 
0 | 3 | > 100 | 1 | 51 | ~100 | 0 | 2 | > 100 | 3 | 74 | 56 | 99 | 100 | 1.55 | 2 | 10 | > 100 | CC(C)(C)[C@H](NC(=O)c1ccc2ccccc2n1)C(=O)N1CCC[C@@H]1C(=O)N[C@H](/C=C/S(C)(=O)=O)CC(=O)O [Compound 6, 2-Quinoline carbonyl-t-Leu-pro-Asp methyl vinyl sulfone] | IC50 (Caspase-4; read-out: potency (IC50) against caspase-4): 1.55 µM
0 | 0 | > 100 | 0 | 0 | > 100 | 3 | 19 | > 100 | 26 | 35 | > 100 | 0 | 0 | > 100 | 1 | 3 | > 100 | CC(C)[C@H](NC(=O)c1ccc2ccccc2n1)C(=O)N[C@H](/C=C/S(C)(=O)=O)CC(=O)O [Compound 16, 2-Quinoline carbonyl-Val-Asp methyl vinyl sulfone] | 
0 | 8 | > 100 | 0 | 9 | > 100 | 0 | 7 | > 100 | 14 | 0 | > 100 | 0 | 0 | > 100 | 0 | 0 | > 100 | CS(=O)(=O)/C=C/[C@H](CC(=O)O)NC(=O)[C@H](CCC(=O)O)NC(=O)c1ccc2ccccc2n1 [Compound 18, 2-Quinoline carbonyl-Glu-Asp methyl vinyl sulfone] | 
0 | 0 | > 100 | 8 | 44 | > 100 | 0 | 0 | > 100 | 42 | 93 | 12.5 | 85 | 100 | 1.56 | 7 | 6 | > 100 | CC(C)(C)[C@H](NC(=O)c1ccc2ccccc2n1)C(=O)N1CC[C@@H]1C(=O)N[C@H](/C=C/S(C)(=O)=O)CC(=O)O [Compound 20, 2-Quinoline carbonyl-t-Leu-(Azetidine-2-carbonyl)-Asp methyl vinyl sulfone] | 
1 | 10 | > 100 | 1 | 10 | > 100 | 0 | 0 | > 100 | 0 | 0 | > 100 | 0 | 4 | > 100 | 14 | 18 | > 100 | CC(C)(C)OC(=O)CC[C@H](NC(=O)OC(C)(C)C)C(=O)N[C@H](/C=C/S(C)(=O)=O)CC(=O)OC(C)(C)C [Compound 21, Boc-Glu(O—tBu)-Asp (O—tBu)-methyl vinyl sulfone] | 

SMILES | inhibition at 10 µM (Caspase-6) [%] | inhibition at 100 µM (Caspase-6) [%] | IC50 (Caspase-6) [µM] | inhibition at 10 µM (Caspase-9; 10 uM) [%] | inhibition at 100 µM (Caspase-9; 100 uM) [%] | IC50 (Caspase-9) [µM] | inhibition at 10 µM (Caspase-7; 10 uM) [%] | inhibition at 100 µM (Caspase-7; 100 uM) [%] | IC50 (Caspase-7) [µM] | inhibition at 10 µM (Caspase-10) [%] | inhibition at 100 µM (Caspase-10) [%] | IC50 (Caspase-10) [µM] | inhibition at 10 µM (Caspase-4) [%] | inhibition at 100 µM (Caspase-4) [%] | IC50 (Caspase-4; read-out: IC50 Casp4) [µM] | inhibition at 10 µM (Caspase-2) [%] | inhibition at 100 µM (Caspase-2) [%] | IC50 (Caspase-2) [µM] | further results
CS(=O)(=O)/C(Cl)=C/[C@@H](N)CC(=O)O [Compound 4, Asp achlorovinyl methyl vinyl sulfone, Tosyl Salt] | 0 | 0 | > 100 |  |  | > 100 |  |  | > 100 | 36 | 43 | > 100 | 0 | 0 | > 100 | 0 | 0 | > 100 | inhibition at 10 µM (Caspase-9): 0%; inhibition at 100 µM (Caspase-9): 0%; inhibition at 10 µM (Caspase-7): 0%; inhibition at 100 µM (Caspase-7): 0%
